Assay: Safety and tolerability (TEAEs, SAEs, DLTs, RP2D) in phase Ib study
Type: in vivo, human
Conditions: 500 mg BID + nab-P/Gem
From the text: Safety assessments included collection of adverse events (AEs), serious AEs (SAEs), vital signs and physical examination, electrocardiogram (12-lead), laboratory assessments, including pregnancy test, and verification of concomitant treatments. A patient was considered as DLT-evaluable if the patient experienced a DLT or if otherwise, in the absence of a DLT, the patient received at least 85% of the planned doses of each study drug in the first 28-day cycle. DLTs were defined as any of the following events occurring in the first cycle of treatment (days 1 through 28) and attributed (i.e., judged to be at least possibly related) to the combination of PF-04136309 plus nab-paclitaxel/gemcitabine, where relationship with the combination could not be ruled out. DLTs were hematologic events of grade 4 neutropenia lasting >5 days; febrile neutropenia; grade ≥ 3 neutropenic infection; grade ≥ 3 thrombocytopenia with grade ≥ 2 bleeding; grade 4 thrombocytopenia; and nonhematologic events of grade 3 toxicities. Exceptions included nausea and vomiting responding to prophylaxis and/or treatment and lasting <7 days from each chemotherapy infusion period; diarrhea responding to treatment and lasting <7 days; grade 3 fatigue lasting <7 days; grade 3 QT interval corrected for heart rate prolongation (>500 msec) persisting after correction of any reversible causes; and/or grade 3 aspartate aminotransferase (AST) and/or alanine aminotransferase (ALT) increase lasting ≤7 days. All grade 4 toxicities and a delay of >2 weeks in receiving the next scheduled cycle due to persistent treatment-related toxicities were considered DLTs. AEs meeting DLT criteria in the dose-expansion phase included grade 3 events of diarrhea, hypokalemia, and dysesthesia and grade 4 hypoxia. […] AEs were graded according to the National Cancer Institute Common Terminology Criteria for Adverse Events, version 4.03.

Q: With `O=C(NCC(=O)N1CC[C@H](N[C@H]2CC[C@@](O)(c3ccc(-c4ncccn4)cn3)CC2)C1)c1cccc(C(F)(F)F)c1` [PF-04136309] as the molecule, how does the “Alopecia, Grade 4” value (all-causality TEAE) read?
A: 0 n (%)

Q: What about the “Alopecia, Grade 5” value (all-causality TEAE) of the same molecule?
A: 0 n (%)

Q: And the “Alopecia, Total” value (all-causality TEAE)?
A: 10 (58.8) n (%)

Q: And the “Anemia, Grade 1” value (all-causality TEAE)?
A: 2 (11.8) n (%)

Q: And the “Anemia, Grade 2” value (all-causality TEAE)?
A: 5 (29.4) n (%)

Q: And the “Anemia, Grade 3” value (all-causality TEAE)?
A: 4 (23.5) n (%)

Q: And the “Anemia, Grade 4” value (all-causality TEAE)?
A: 0 n (%)

Q: And the “Anemia, Grade 5” value (all-causality TEAE)?
A: 0 n (%)

Q: And the “Anemia, Total” value (all-causality TEAE)?
A: 11 (64.7) n (%)

Q: What about the “Any AE, Grade 1” value (all-causality TEAE) of the same molecule?
A: 0 n (%)

Q: What about the “Any AE, Grade 2” value (all-causality TEAE) of the same molecule?
A: 1 (5.9) n (%)

Q: What about the “Any AE, Grade 3” value (all-causality TEAE) of the same molecule?
A: 12 (70.6) n (%)

Q: And the “Any AE, Grade 4” value (all-causality TEAE)?
A: 3 (17.6) n (%)

Q: And the “Any AE, Grade 5” value (all-causality TEAE)?
A: 1 (5.9) n (%)

Q: What about the “Any AE, Total” value (all-causality TEAE) of the same molecule?
A: 17 (100.0) n (%)

Q: And the “Appetite decrease, Grade 1” value (all-causality TEAE)?
A: 5 (29.4) n (%)

Q: What about the “Appetite decrease, Grade 2” value (all-causality TEAE) of the same molecule?
A: 0 n (%)

Q: And the “Appetite decrease, Grade 3” value (all-causality TEAE)?
A: 1 (5.9) n (%)

Q: And the “Appetite decrease, Grade 4” value (all-causality TEAE)?
A: 0 n (%)

Q: And the “Appetite decrease, Grade 5” value (all-causality TEAE)?
A: 0 n (%)

Q: And the “Appetite decrease, Total” value (all-causality TEAE)?
A: 6 (35.3) n (%)

Q: And the “Blood alkaline phosphatase, Grade 1” value (all-causality TEAE)?
A: 1 (5.9) n (%)

Q: And the “Blood alkaline phosphatase, Grade 2” value (all-causality TEAE)?
A: 4 (23.5) n (%)

Q: And the “Blood alkaline phosphatase, Grade 3” value (all-causality TEAE)?
A: 2 (11.8) n (%)

Q: And the “Blood alkaline phosphatase, Grade 4” value (all-causality TEAE)?
A: 0 n (%)

Q: What about the “Blood alkaline phosphatase, Grade 5” value (all-causality TEAE) of the same molecule?
A: 0 n (%)

Q: And the “Blood alkaline phosphatase, Total” value (all-causality TEAE)?
A: 7 (41.2) n (%)

Q: And the “Constipation, Grade 1” value (all-causality TEAE)?
A: 5 (29.4) n (%)

Q: What about the “Constipation, Grade 2” value (all-causality TEAE) of the same molecule?
A: 2 (11.8) n (%)

Q: And the “Constipation, Grade 3” value (all-causality TEAE)?
A: 0 n (%)

Q: What about the “Constipation, Grade 4” value (all-causality TEAE) of the same molecule?
A: 0 n (%)

Q: What about the “Constipation, Grade 5” value (all-causality TEAE) of the same molecule?
A: 0 n (%)

Q: And the “Constipation, Total” value (all-causality TEAE)?
A: 7 (41.2) n (%)

Q: What about the “Diarrhea, Grade 1” value (all-causality TEAE) of the same molecule?
A: 4 (23.5) n (%)

Q: And the “Diarrhea, Grade 2” value (all-causality TEAE)?
A: 2 (11.8) n (%)

Q: And the “Diarrhea, Grade 3” value (all-causality TEAE)?
A: 1 (5.9) n (%)

Q: And the “Diarrhea, Grade 4” value (all-causality TEAE)?
A: 0 n (%)

Q: What about the “Diarrhea, Grade 5” value (all-causality TEAE) of the same molecule?
A: 0 n (%)

Q: What about the “Diarrhea, Total” value (all-causality TEAE) of the same molecule?
A: 7 (41.2) n (%)

Q: And the “Edema, peripheral, Grade 1” value (all-causality TEAE)?
A: 7 (41.2) n (%)

Q: What about the “Edema, peripheral, Grade 2” value (all-causality TEAE) of the same molecule?
A: 1 (5.9) n (%)

Q: What about the “Edema, peripheral, Grade 3” value (all-causality TEAE) of the same molecule?
A: 0 n (%)

Q: And the “Edema, peripheral, Grade 4” value (all-causality TEAE)?
A: 0 n (%)

Q: And the “Edema, peripheral, Grade 5” value (all-causality TEAE)?
A: 0 n (%)

Q: And the “Edema, peripheral, Total” value (all-causality TEAE)?
A: 8 (47.1) n (%)

Q: What about the “Fatigue, Grade 1” value (all-causality TEAE) of the same molecule?
A: 4 (23.5) n (%)

Q: What about the “Fatigue, Grade 2” value (all-causality TEAE) of the same molecule?
A: 4 (23.5) n (%)

Q: What about the “Fatigue, Grade 3” value (all-causality TEAE) of the same molecule?
A: 5 (29.4) n (%)

Q: And the “Fatigue, Grade 4” value (all-causality TEAE)?
A: 0 n (%)

Q: What about the “Fatigue, Grade 5” value (all-causality TEAE) of the same molecule?
A: 0 n (%)

Q: What about the “Fatigue, Total” value (all-causality TEAE) of the same molecule?
A: 13 (76.5) n (%)

Q: And the “Headache, Grade 1” value (all-causality TEAE)?
A: 4 (23.5) n (%)

Q: What about the “Headache, Grade 2” value (all-causality TEAE) of the same molecule?
A: 1 (5.9) n (%)

Q: And the “Headache, Grade 3” value (all-causality TEAE)?
A: 0 n (%)

Q: What about the “Headache, Grade 4” value (all-causality TEAE) of the same molecule?
A: 0 n (%)

Q: And the “Headache, Grade 5” value (all-causality TEAE)?
A: 0 n (%)

Q: And the “Headache, Total” value (all-causality TEAE)?
A: 5 (29.4) n (%)

Q: And the “Hyperglycemia, Grade 1” value (all-causality TEAE)?
A: 2 (11.8) n (%)

Q: What about the “Hyperglycemia, Grade 2” value (all-causality TEAE) of the same molecule?
A: 3 (17.6) n (%)

Q: And the “Hyperglycemia, Grade 3” value (all-causality TEAE)?
A: 3 (17.6) n (%)

Q: What about the “Hyperglycemia, Grade 4” value (all-causality TEAE) of the same molecule?
A: 0 n (%)

Q: What about the “Hyperglycemia, Grade 5” value (all-causality TEAE) of the same molecule?
A: 0 n (%)

Q: And the “Hyperglycemia, Total” value (all-causality TEAE)?
A: 8 (47.1) n (%)

Q: And the “Insomnia, Grade 1” value (all-causality TEAE)?
A: 7 (41.2) n (%)

Q: What about the “Insomnia, Grade 2” value (all-causality TEAE) of the same molecule?
A: 1 (5.9) n (%)

Q: What about the “Insomnia, Grade 3” value (all-causality TEAE) of the same molecule?
A: 0 n (%)

Q: What about the “Insomnia, Grade 4” value (all-causality TEAE) of the same molecule?
A: 0 n (%)

Q: And the “Insomnia, Grade 5” value (all-causality TEAE)?
A: 0 n (%)

Q: And the “Insomnia, Total” value (all-causality TEAE)?
A: 8 (47.1) n (%)

Q: What about the “Lymphopenia, Grade 1” value (all-causality TEAE) of the same molecule?
A: 0 n (%)

Q: What about the “Lymphopenia, Grade 2” value (all-causality TEAE) of the same molecule?
A: 0 n (%)

Q: And the “Lymphopenia, Grade 3” value (all-causality TEAE)?
A: 5 (29.4) n (%)

Q: And the “Lymphopenia, Grade 4” value (all-causality TEAE)?
A: 0 n (%)

Q: What about the “Lymphopenia, Grade 5” value (all-causality TEAE) of the same molecule?
A: 0 n (%)

Q: What about the “Lymphopenia, Total” value (all-causality TEAE) of the same molecule?
A: 5 (29.4) n (%)

Q: And the “Nausea, Grade 1” value (all-causality TEAE)?
A: 12 (70.6) n (%)

Q: And the “Nausea, Grade 2” value (all-causality TEAE)?
A: 2 (11.8) n (%)

Q: And the “Nausea, Grade 3” value (all-causality TEAE)?
A: 0 n (%)

Q: And the “Nausea, Grade 4” value (all-causality TEAE)?
A: 0 n (%)

Q: And the “Nausea, Grade 5” value (all-causality TEAE)?
A: 0 n (%)

Q: What about the “Nausea, Total” value (all-causality TEAE) of the same molecule?
A: 14 (82.4) n (%)

Q: And the “Neuropathy peripheral, Grade 1” value (all-causality TEAE)?
A: 8 (47.1) n (%)

Q: And the “Neuropathy peripheral, Grade 2” value (all-causality TEAE)?
A: 1 (5.9) n (%)

Q: What about the “Neuropathy peripheral, Grade 3” value (all-causality TEAE) of the same molecule?
A: 0 n (%)

Q: What about the “Neuropathy peripheral, Grade 4” value (all-causality TEAE) of the same molecule?
A: 0 n (%)

Q: And the “Neuropathy peripheral, Grade 5” value (all-causality TEAE)?
A: 0 n (%)

Q: What about the “Neuropathy peripheral, Total” value (all-causality TEAE) of the same molecule?
A: 9 (52.9) n (%)

Q: And the “Pyrexia, Grade 1” value (all-causality TEAE)?
A: 7 (41.2) n (%)

Q: What about the “Pyrexia, Grade 2” value (all-causality TEAE) of the same molecule?
A: 5 (29.4) n (%)

Q: What about the “Pyrexia, Grade 3” value (all-causality TEAE) of the same molecule?
A: 0 n (%)

Q: And the “Pyrexia, Grade 4” value (all-causality TEAE)?
A: 0 n (%)

Q: What about the “Pyrexia, Grade 5” value (all-causality TEAE) of the same molecule?
A: 0 n (%)

Q: And the “Pyrexia, Total” value (all-causality TEAE)?
A: 12 (70.6) n (%)

Q: What about the “Rash, Grade 1” value (all-causality TEAE) of the same molecule?
A: 7 (41.2) n (%)

Q: What about the “Rash, Grade 2” value (all-causality TEAE) of the same molecule?
A: 1 (5.9) n (%)

Q: And the “Rash, Grade 3” value (all-causality TEAE)?
A: 0 n (%)

Q: And the “Rash, Grade 4” value (all-causality TEAE)?
A: 0 n (%)

Q: What about the “Rash, Grade 5” value (all-causality TEAE) of the same molecule?
A: 0 n (%)

Q: And the “Rash, Total” value (all-causality TEAE)?
A: 8 (47.1) n (%)

Q: What about the “Vomiting, Grade 1” value (all-causality TEAE) of the same molecule?
A: 6 (35.3) n (%)

Q: And the “Vomiting, Grade 2” value (all-causality TEAE)?
A: 1 (5.9) n (%)

Q: And the “Vomiting, Grade 3” value (all-causality TEAE)?
A: 0 n (%)

Q: And the “Vomiting, Grade 4” value (all-causality TEAE)?
A: 0 n (%)

Q: What about the “Vomiting, Grade 5” value (all-causality TEAE) of the same molecule?
A: 0 n (%)

Q: And the “Vomiting, Total” value (all-causality TEAE)?
A: 7 (41.2) n (%)

Q: What about the “Weight decreased, Grade 1” value (all-causality TEAE) of the same molecule?
A: 5 (29.4) n (%)

Q: And the “Weight decreased, Grade 2” value (all-causality TEAE)?
A: 4 (23.5) n (%)

Q: And the “Weight decreased, Grade 3” value (all-causality TEAE)?
A: 0 n (%)

Q: What about the “Weight decreased, Grade 4” value (all-causality TEAE) of the same molecule?
A: 0 n (%)

Q: And the “Weight decreased, Grade 5” value (all-causality TEAE)?
A: 0 n (%)

Q: And the “Weight decreased, Total” value (all-causality TEAE)?
A: 9 (52.9) n (%)

Q: And the “Any SAE, Grade 1” value (treatment-related SAE)?
A: 0 n (%)

Q: And the “Any SAE, Grade 2” value (treatment-related SAE)?
A: 0 n (%)
